Values quoted from earlier work, collected in patent US20240307364A1, “GAS TRANSMISSION EMULSION FOR INTRAVENOUS ADMINISTRATION” (priority 2021, published 2024).
Where two headings read alike, the source gives them in different places.

Legend:
[1] = toxic or locally irritating properties of the detected impurity
[2] = 37° C.
[3] = measure of relative solubility of PFOC in lipids

Row | Molecule | Toxicity, yes/no [1] | Grade of clearance rate (in vivo) | TcrH (temperature at which equal volumes of PFOC and hexane are mixed together) [3] | other results
1 | CCOC(=O)c1ccccc1 [benzoic acid ethyl ester] | yes | – | – | –
2 | Fc1ccc2ccccc2c1 [naphthalene, 2-fluoro-] | yes | – | – | –
3 | FC1(F)C(F)(F)C(F)(F)C2(F)C(F)(F)C(F)(F)C(F)(F)C2(F)C1(F)F (stereo not drawn) [Perfluorobicyclo[4.3.0]nonane] | – | Fast | 13 °C | t1/2, elimination half-life (elimination from an organism): 4 days; P, vapor tension [2]: 33 mm Hg
4 | CCOC(C)c1ccccc1 (single isomer, unassigned) [benzene, (1-ethoxyethyl)-] | yes | – | – | –
5 | OCC(O)CO [glycerol] | no | – | – | –
6 | CCCCCO (single isomer, unassigned) [pentanol] | yes | – | – | –
7 | CN(C)C(=S)N(C)C [thiourea, tetramethyl-] | yes | – | – | –
8 | Cc1cc(Cc2cc(C)cc(C(C)(C)C)c2O)c(O)c(C(C)(C)C)c1 [phenol, 2,2′-methylenebis[6-(1,1-dimethylethyl)-4-methyl-] | yes | – | – | –
9 | FC(F)(F)C(F)(F)C(F)(F)C(F)(F)N(C(F)(F)C(F)(F)C(F)(F)C(F)(F)F)C(F)(F)C(F)(F)C(F)(F)C(F)(F)F [Perfluorotributylamine (PFTBA), Perfluorotributylamine] | – | Slow | 61 °C | t1/2, elimination half-life (elimination from an organism): 400 to 900 days; P, vapor tension [2]: 1 mm Hg
10 | CC1=NN(c2ccccc2)C(=O)C1 [3H-pyrazol-3-one, 2,4-dihydro-5-methyl-2-phenyl-] | yes | – | – | –
11 | Perfluorodimethyladamantane [Perfluorodimethyladamantane (PFDMA)] | – | Fast | 32 °C | t1/2, elimination half-life (in vivo): 10 to 20 days
12 | FC(F)(F)C(F)(F)C(F)(F)C(F)(F)C(F)(F)C(F)(F)C(F)(F)C(F)(F)Br [Perfluorooctyl bromide (PFOB), Perfluorooctyl bromide] | – | Fast | −20 °C | P, vapor tension [2]: 10.5 mm Hg
13 | Perfluorodihexyl ether | – | Slow | 59 °C | t1/2, elimination half-life (elimination from an organism): 500 days; P, vapor tension [2]: 2 mm Hg
14 | FC1(F)C(F)(F)C(F)(F)C(F)(F)C(F)(F)C1(F)F (single isomer, unassigned) [cyclohexane, dodecafluoro-] | yes | – | – | –
15 | O-ethyl-methoxy-phenyl-oxime | yes | – | – | –
16 | FC(F)(F)C1(F)C(F)(F)C(F)(F)C(F)(F)C(F)(F)C1(F)F (single isomer, unassigned) [perfluoro(methylcyclohexane)] | no | – | – | –
17 | OCc1ccco1 (single isomer, unassigned) [furfurol] | yes | – | – | –
18 | CC(C)COC(=O)c1ccccc1C(=O)OCC(C)C [diisobutyl phthalate] | yes | – | – | –
19 | FC(F)(F)C(F)(F)C(F)(F)N1C(F)(F)C(F)(F)C(F)(F)C(F)(F)C1(F)C(F)(F)F (stereo not drawn) [Perfluoro-1-propyl-2 methylpiperidine] | – | Fast | 35 °C | t1/2, elimination half-life (elimination from an organism): 24 days; P, vapor tension [2]: 19 mm Hg
20 | FC1(F)C(F)(F)C(F)(F)C2(F)C(F)(F)C(F)(F)C(F)(F)C(F)(F)C2(F)C1(F)F (stereo not drawn) [Perfluorodecalin (PFD), Perfluorodecalin] | – | Fast | 22 °C | P, vapor tension [2]: 12 mm Hg
21 | CC1C=CCC(C)(C)C1 (stereo not drawn) [cyclohexene, 3,5,5-trimethyl-] | yes | – | – | –
22 | FC(F)(F)C(F)(F)C(F)(F)N(C(F)(F)C(F)(F)C(F)(F)F)C(F)(F)C(F)(F)C(F)(F)F [Perfluorotripropylamine (PFTPA), Perfluorotripropylamine] | – | Slow | 43 °C | t1/2, elimination half-life (elimination from an organism): 65 days; P, vapor tension [2]: 17 mm Hg
23 | c1ccc2ccccc2c1 [naphthalene] | yes | – | – | –
24 | Cc1cc(O)n(Cc2ccccc2)c(=O)c1C#N [1-benzyl-6-hydroxy-4-methyl-2(1H)-oxo-3-pyridinecarbonitrile] | yes | – | – | –
25 | COC(=O)c1ccccc1C(=O)OC [dimethyl phthalate] | no | – | – | –
26 | FC1(F)C(F)(F)C2(F)C(F)(F)C(F)(F)C(F)(F)C3(F)C(F)(F)C(F)(F)C(F)(C1(F)F)C23F (stereo not drawn) [Perfluorodecahydroacenaphthene] | – | Fast | 24 °C | t1/2, elimination half-life (elimination from an organism): 7 days; P, vapor tension [2]: 2 mm Hg
27 | CO/C(=N\O)c1ccccc1 [oxime-, methoxy-phenyl-] | yes | – | – | –
28 | FC(F)(F)N1C(F)(F)C(F)(F)C(F)(C2(F)C(F)(F)C(F)(F)C(F)(F)C(F)(F)C2(F)F)C(F)(F)C1(F)F [Perfluoromethylcyclohexylpiperidine] | – | Slow | – | t1/2, elimination half-life (elimination from an organism): 90 days
29 | FC(F)(F)N(C(F)(F)C(F)(F)C(F)(F)C(F)(F)F)C1(F)C(F)(F)C(F)(F)C(F)(C(F)(F)F)C(F)(F)C1(F)F (stereo not drawn) [perfluoromethylbutyl(4-methylcyclohexyl)amine] | no | – | – | –
